For this assay, the system named is CEM cells HIV-1 protection, formazan growth assay. Kind of assay: NCI AIDS Antiviral Assay. The following applies: for IC50: measured here: growth of uninfected CEM cells. In short, it runs like this: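 CEM (human) cells, HIV-1 infected vs uninfected, 5-point dosing, formazan growth read-out. Retest threshold 50% protection.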

The source made the active and inactive calls.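 The calls were made as follows: active = compounds giving half or more protection of infected cells from virus-caused growth loss, again on retest; inactive = the rest.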 Where a SMILES comes first, the peptide text is derived from it.

Usually EC50 stands for the concentration giving half of the maximal effect. As usually defined, the IC50 is the concentration that gives 50% inhibition. Take `COc1ccc(N2C(=O)[C@@H]3[C@@H]4CC(C)CC[C@@H]4c4c([nH]c5ccccc45)[C@@H]3C2=O)cc1` (some centres undefined): the EC50 was more than 3.31 µM and the IC50 was more than 3.31 µM.

`NCCNCCN1C(=O)c2cccc3cccc(c23)C1=O`: the EC50 is more than 200 µM and the IC50 turned out to be 7.59 µM.

As for `Cn1c(C(O)C2(c3cccnc3)SCCCS2)cc2ccccc21` (centres undefined), the EC50 was more than 200 µM and the 50% inhibitory concentration (IC50) stood at 75.9 µM.

With `Fc1cccc(Cl)c1C1SCc2nc3ccccc3n21` (centres undefined), the concentration giving a half-maximal response (EC50) is 0.0479 µM and the IC50 was found to be 3.8 µM.

In the case of `CC1=C(O)C(=O)C2C(=O)C1C(C)C2c1ccc(Cl)cc1` (centres undefined), the EC50 was more than 123 µM and the 50% inhibitory concentration (IC50) is more than 123 µM.

As to `Cc1cc2ccccc2n1CC(=O)N1CCCC1`, the EC50 is more than 200 µM and the IC50 was more than 200 µM.

On to `C=CCn1c(N)c(N=O)c(=O)n(C)c1=O`, for which the EC50 was more than 200 µM and the IC50 is more than 200 µM.

As to `N#CCCN(c1ccc(C=Nc2cccc([N+](=O)[O-])c2)cc1)S(=O)(=O)c1ccccc1`, the result was inactive.

As to `C[C@H]1CC[P+](Cc2ccccc2)(c2ccccc2)C1` (some centres undefined), the EC50 was more than 708 µM and the half-maximal inhibitory concentration (IC50) amounted to 33.1 µM.

Take `O=c1c(C(c2ccc(Cl)cc2)c2c(O)c3ccccc3n(-c3ccccc3)c2=O)c(O)c2ccccc2n1-c1ccccc1`: the EC50 is more than 8.71 µM and the IC50 was more than 8.71 µM.

Take `CCOC(=O)N/N=C(\Cc1ccccc1)OCC`: the EC50 was more than 200 µM and the half-maximal inhibitory concentration (IC50) is more than 200 µM.

On to `CC(C)(C)c1cc(Nc2c([N+](=O)[O-])cc([N+](=O)[O-])cc2[N+](=O)[O-])cc(C(C)(C)C)c1O`, for which the EC50 is more than 16.6 µM and the half-inhibitory concentration (IC50) was more than 16.6 µM.

For `O=C1NC(=O)C(Cc2cccc(Cl)c2)C(=O)N1`, the EC50 was more than 200 µM and the IC50 was more than 200 µM.

Turning to `C#CCN(Cc1ccc2nc(OC)c(OC)nc2c1)c1cc(OC)c(OC)c(OC)c1`, the EC50 is more than 200 µM and the 50% inhibitory concentration (IC50) was determined as 11.2 µM.

As to `COc1cc([N+](=O)[O-])c(OC)c2c(=O)[nH]c(=O)[nH]c12`, the EC50 is more than 47.9 µM and the half-inhibitory concentration (IC50) is more than 47.9 µM.

Regarding `Cc1cc(C)c2c(c1)C(=O)C1(C2)Cc2c(ccc(C)c2C)C1=O` (centres undefined), the EC50 is more than 100 µM and the 50% inhibitory concentration (IC50) was more than 100 µM.

`CN(C)c1ccc2c(c1)-c1cc(N(C)C)ccc1C2=CC=C1C(=O)NC(=S)NC1=O`: the EC50 was more than 12.3 µM and the concentration for half-maximal inhibition (IC50) was more than 12.3 µM.

`O=C(Oc1ccccc1C(=O)O)c1ccccc1O`: the EC50 is more than 200 µM and the IC50 is more than 200 µM.

With `Nc1c(Br)cc2c(c1Br)Cc1cc(N=Nc3ccccc3)ccc1-2`, the EC50 was found to be 51.3 µM and the concentration for half-maximal inhibition (IC50) amounted to 102 µM.

Consider `CC(C)Cn1cnc2c(Cl)nc3ccccc3c21`, for which the EC50 is more than 200 µM and the half-maximal inhibitory concentration (IC50) is 41.7 µM.

`COc1ccc(-c2oc(=O)c3ccccc3c2-c2ccccc2)cc1`: the EC50 is more than 15.8 µM and the IC50 was more than 15.8 µM.

Regarding `Cc1nc2ccc(NC(=S)Nc3ccccc3)cc2c(=O)n1-c1ccccc1`, the EC50 was more than 200 µM and the IC50 was more than 200 µM.

With `Cc1ccc(/C=C2\Sc3scc(-c4ccccc4)[n+]3C2=O)cc1`, the EC50 is more than 200 µM and the IC50 came to 89.1 µM.

On to `C=C(C)C(CCC(=O)O)(CCC(=O)O)C(C)=O`, for which the EC50 is more than 1020 µM and the IC50 is more than 1020 µM.

As for `Cc1cc(S(=O)(=O)n2ccnc2Oc2ccccc2)c(SSc2cc(Cl)c(C)cc2S(=O)(=O)n2ccnc2Oc2ccccc2)cc1Cl`, the EC50 was 129 µM and the IC50 is more than 200 µM.

`CCCCOC(=O)C(=O)C(CCC(=O)c1ccc(C)cc1)C(=O)C=C(C)C` (centres undefined): the EC50 is more than 69.2 µM and the IC50 is more than 69.2 µM.

For the compound `Cn1c2ccc3cc2c(=S)c2cc(ccc21)OCCOCCOCCOCCOCCOCCO3`, the EC50 is more than 200 µM and the IC50 turned out to be 186 µM.

Take `NC(=O)/N=C1/CCC2C3CCCC2C13`: the outcome was inactive.

`CC1(C2CCC3(C)C(C2)C3Sc2ccccc2)OCCO1` (centres undefined): the outcome was inactive.

As to `CCOC(=O)CNC(=O)C(Cc1ccccc1)NC(=O)C(N)CC(=O)O` (stereo not drawn) (H-Asp-Phe-Gly-OEt; configuration not given here), the EC50 is more than 200 µM and the IC50 is more than 200 µM.

In the case of `CC1(C)CC(=O)CC(=Nc2ccc([N+](=O)[O-])cc2)C1`, the EC50 is more than 52.5 µM and the 50% inhibitory concentration (IC50) was more than 52.5 µM.

`c1ccc(SC(CCCCC(Sc2ccccc2)Sc2ccccc2)Sc2ccccc2)cc1`: the outcome was inactive.

Consider `Cc1cc(Cl)ccc1NC(=O)CC1SC(N)=NC1=O` (centres undefined), for which the EC50 is more than 832 µM and the concentration for half-maximal inhibition (IC50) is more than 832 µM.

For the compound `Cc1ccc(-n2c(N)c(C#N)c3c(c2=S)CCC3)cc1`, the EC50 was more than 129 µM and the IC50 is more than 129 µM.

As for `Cc1nc(N)nc(N)c1N1CCN(c2ccc([N+](=O)[O-])cc2)CC1`, the EC50 is more than 100 µM and the IC50 was determined as 27.5 µM.

Take `COC1=C(Br)C(=O)c2nc(C)ccc2C1=O`: the outcome was inactive.

As for `CC1=C(C)CC2(SC1)C(=O)c1ccccc1C2=O`, the result was inactive.

Take `COc1nc(C(O)C2OC(C)(C)OCC2O)[nH]c1C#N` (centres undefined): the outcome was inactive.

As for `OC1CCC(O)[C@H]2[C@@H]1[C@@H]1S[C@H]2c2ccccc21` (some centres undefined), the EC50 is more than 200 µM and the half-maximal inhibitory concentration (IC50) is more than 200 µM.

Consider `CCCCCCCCCCCCCCCCNCCCS(=O)(=O)O`, for which the EC50 is more than 200 µM and the IC50 was 3.89 µM.

In the case of `COC1OC2COc3ccccc3OC2C2N=C(N)SC12` (centres undefined), the EC50 was 295 µM and the half-maximal inhibitory concentration (IC50) was determined as 363 µM.

On to `O=C(O)c1c(CC(Cc2ccccc2)C(=O)O)ccc2c1CCC2` (centres undefined), for which the EC50 was more than 200 µM and the 50% inhibitory concentration (IC50) is more than 200 µM.

`CC(C)C1N2CCCCC2[C@@H]2c3[nH]c4ccccc4c3CCN12` (some centres undefined): the EC50 was more than 81.3 µM and the concentration for half-maximal inhibition (IC50) is more than 81.3 µM.

Regarding `C=C1CC(C)(COc2ccc3ccc(=O)oc3c2)OC1=O` (centres undefined), the EC50 is more than 20 µM and the half-maximal inhibitory concentration (IC50) amounted to 0.275 µM.

`COc1cc(OC)cc(Oc2nc3ccccc3nc2C(=O)O)c1`: the EC50 is more than 200 µM and the IC50 is more than 200 µM.

Regarding `CC[C@]1(c2ccc3c(c2)OCO3)C=[N+]([O-])O[C@H](OC2CCCC2(c2ccccc2)c2ccccc2)[C@@H]1OC(C)=O` (some centres undefined), the EC50 is more than 200 µM and the 50% inhibitory concentration (IC50) stood at 4.07 µM.

As to `O=C(/C=C/c1ccsc1)c1cccs1`, the EC50 was more than 200 µM and the half-inhibitory concentration (IC50) was determined as 3.55 µM.

For `Cc1cc(OP2(=O)NCc3ncccc3O2)ccc1Cl` (centres undefined), the EC50 is more than 200 µM and the concentration for half-maximal inhibition (IC50) is more than 200 µM.

Regarding `COc1cc2c3c(c1)[nH]c(=S)n3C(=O)CCS2`, the EC50 is more than 200 µM and the concentration for half-maximal inhibition (IC50) was more than 100 µM.

For `COC(CNC(=O)C(C)NC(=O)C(C)NC(=O)c1ccccc1)OC` (centres undefined), the outcome was inactive.

As to `CCOC(=O)C(=Cc1cccc(OC)c1)C(=O)OCC`, the EC50 was more than 129 µM and the 50% inhibitory concentration (IC50) came to 14.8 µM.

As to `CC1(C)OC(CCC#N)CN1C(=O)OCc1ccccc1` (centres undefined), the EC50 is more than 200 µM and the half-maximal inhibitory concentration (IC50) is 135 µM.

`O=C(OCCN1CCCC1)c1cc2ccccc2n1Cc1ccccc1`: the EC50 is more than 200 µM and the IC50 was 36.3 µM.

As for `CCC(C)(C)C1CCC2c3c([nH]c4ccccc34)C3C(=O)N(c4ccc(OC)cc4)C(=O)C3C2C1` (centres undefined), the EC50 was more than 200 µM and the half-maximal inhibitory concentration (IC50) came to 7.76 µM.

Take `CC(C)CC(NC(=O)C(Cc1ccc(O)cc1)NC(=O)C(CO)NC(=O)C(C)NC(=O)C(CCCN=C(N)N)NC(=O)C(CCC(=O)O)NC(=O)C(NC(=O)C(N)CCC(=O)O)C(C)C)C(=O)NC(CO)C(=O)NC(CCCCN)C(=O)O` (centres undefined) (H-EVERASYLSK-OH; configuration not given here): the result was inactive.

Turning to `O=C(/C=C\c1ccccc1)c1ccc(-c2cccc(-c3ccccc3)c2)cc1`, the EC50 is more than 200 µM and the IC50 stood at 110 µM.

Turning to `NCC1(N2CCOCC2)C2CCCC21CO` (centres undefined), the EC50 is more than 1100 µM and the IC50 was more than 1100 µM.

`CCOC(=O)CSc1nc2ccccc2c(=O)n1N`: the EC50 was more than 200 µM and the half-maximal inhibitory concentration (IC50) is more than 200 µM.

Take `O=C1C2=Cc3ccccc3OC2(O)Oc2ccc(O)cc21` (centres undefined): the EC50 is more than 200 µM and the IC50 worked out at 50.1 µM.

As for `COc1cc2c(cc1O)C1(Cc3ccc4c(c3C1=O)OCO4)N(C)CC2` (centres undefined), the EC50 was more than 200 µM and the concentration for half-maximal inhibition (IC50) is more than 200 µM.

In the case of `OC12c3ccccc3C1CCCCCCCCCC21OCCCO1` (centres undefined), the EC50 is more than 200 µM and the half-maximal inhibitory concentration (IC50) was more than 200 µM.

For `Cc1ccc(S(=O)(=O)N/N=c2\c(C)c(C3=NS(=O)(=O)c4cc(S(N)(=O)=O)c(Cl)cc4N3)oc3c(Cl)cc(Cl)cc23)cc1`, the EC50 is more than 69.2 µM and the half-inhibitory concentration (IC50) was more than 69.2 µM.

`O=C(Nc1ccc([N+](=O)[O-])cc1)N(c1ccccc1)c1cc(N2CCOCC2)ccn1`: the EC50 is more than 200 µM and the IC50 is 39.8 µM.

Consider `CC1c2[nH]c3ccccc3c2CCN1O` (centres undefined), for which the result was inactive.

Take `CCOP(=O)(Cc1nc(C#N)c(N)o1)OCC`: the EC50 was more than 200 µM and the IC50 was more than 200 µM.

Regarding `CC[C@@H]1OC2(C)CC(S(=O)(=O)c3ccccc3O)CC1O2` (some centres undefined), the EC50 was more than 794 µM and the concentration for half-maximal inhibition (IC50) turned out to be 741 µM.

Consider `CNc1cc(OCc2ccccc2)c(OC)cc1C(=O)N1CCC[C@H]1CO`, for which the EC50 was more than 200 µM and the half-inhibitory concentration (IC50) was 42.7 µM.

With `CN(C)C(=S)/N=c1\ss/c(=N/C(=S)N(C)C)n1-c1ccc([N+](=O)[O-])cc1`, the EC50 was more than 200 µM and the IC50 amounted to 151 µM.

In the case of `COc1cc(C(=O)/C=C/c2ccc(OCC#N)cc2)cc(OC)c1OC`, the EC50 is more than 200 µM and the half-inhibitory concentration (IC50) was 29.5 µM.

Turning to `Cc1cc2c(cc1C)NC(C)CC(=O)N2` (centres undefined), the EC50 was more than 200 µM and the IC50 is more than 200 µM.

Turning to `CC1(C)CC[C@]2(C(=O)O)C(O)CC3(C)C(=CCC4[C@@]5(C)CC[C@H](OS(=O)(=O)O)C(C)(C)C5CC[C@]43C)[C@@H]2C1` (some centres undefined), the EC50 was more than 219 µM and the half-maximal inhibitory concentration (IC50) was more than 219 µM.

In the case of `COC12CCC(C(C(=O)c3ccccc3)=C1C(=O)c1ccccc1)C(O)C2` (centres undefined), the EC50 was more than 501 µM and the concentration for half-maximal inhibition (IC50) is more than 501 µM.

(Values after PubChem BioAssay AID179 (DTP/NCI, 2004).)
